Biological target: T1, progerin (Mus musculus, UniProt P48678, DEL608-657)
T1 construct: endogenous in cells; host or cells: immortalized (SV40-LT) fibroblasts from Lmna G609G/G609G mice
T1 sequence (P48678 with tags, fused parts or gaps DEL608-657 limits assumed): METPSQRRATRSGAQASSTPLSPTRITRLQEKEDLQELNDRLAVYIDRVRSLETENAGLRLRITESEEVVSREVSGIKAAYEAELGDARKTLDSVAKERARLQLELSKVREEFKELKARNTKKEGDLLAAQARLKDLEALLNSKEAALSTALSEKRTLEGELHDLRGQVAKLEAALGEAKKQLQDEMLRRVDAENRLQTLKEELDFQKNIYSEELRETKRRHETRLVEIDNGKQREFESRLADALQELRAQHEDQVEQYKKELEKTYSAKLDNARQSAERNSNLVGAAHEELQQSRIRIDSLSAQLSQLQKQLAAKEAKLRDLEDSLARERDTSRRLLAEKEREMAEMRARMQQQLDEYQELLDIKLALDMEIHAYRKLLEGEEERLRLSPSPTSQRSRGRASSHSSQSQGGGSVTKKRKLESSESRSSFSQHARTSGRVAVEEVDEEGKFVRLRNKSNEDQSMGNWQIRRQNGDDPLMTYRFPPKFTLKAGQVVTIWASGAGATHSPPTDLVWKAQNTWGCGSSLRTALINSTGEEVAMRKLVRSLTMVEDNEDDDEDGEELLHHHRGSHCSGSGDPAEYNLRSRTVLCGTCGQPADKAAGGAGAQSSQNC
Test: Cellular thermal shift assay
Assay type: binding
Experimental: Vehicle .LM123L T-!=>(%C" V,!=> […]
50- !!!!!C#' -4TT8VLamin C -4T:T; (%$$-4-:?5T '()*+
!!!!!E#)*+,- ,V4:-β-Actin ,?4?V ,848; D(%
37- !!!!!*+,- 84;66L<-,V V4-;VL<-,? ?4T-?L<-,8 ,-)*+ […]
Supporting Figure S2. Ternary complex formation, progerin engagement and global selectivity of compound 2. […]
(C) Thermal denaturation curves of progerin in the presence of vehicle (black) or compound 2 at 10 µM (red, DTm=0.7±0.1 °C) or 25 µM (blue, […]
of compound 2 (IC50=7±1 µM). Curves are generated and fitted using sigmoidal dose-response non-linear regression curve fit in GraphPad Prism. Symbols and associated error bars (when not enclosed by the symbol) represent average±SD from two independent experiments carried out in duplicate. […]
(also on this page, place not known: >4000; Cpd2Cpd2 #)"$"C"#"*")*$*C ,V4:- 89:/1239 .0,;902<=:939:>=R?T !"#$#" (%$$ (%C" #)"$"C"#"*")*$*C -45665 -4TT8V ,V4:- 84;66L<-,V T-!=> ,?4?V V4-;VL<-,? -4-:?5T ,848; ?4T-?L<-,8 89:/1239 .0,;902<=:939:>=R?T FFFFFSB#T89: FFFFFSB#T89: FFFFFa+#-++GFB2FC-++CB$ FFFFFbFGF4D-+C FFFFF!4$FB2F!F4D-+G FFFFFiFB2FMF3DE4+G FFFFFiFkF3DE4+GFDLDEdl+C I9em:m rrr 9 :eosmX :e:snst o o Ise::::: I9e::::: :etpoooomX :esnnsmqmX :enst9mmqo :estm9XpoX Lamin β-Actin Progerin Relative progerin levelsin thesoluble fraction Relative levelsof denaturedprogerin [Cpd2, Relative progerin signal intensityvs IgG Cpd2 [Cpd2]=10 [Cpd2]=25 AbundanceRatio Veh Cpd2 -Log10 (p value)) […]
buffer containing 2.5% β-mercaptoethanol, and heated at 95 °C for 5 min prior to magnetic separation and loading of supernatants onto SDS -PAGE gels. Input lysates (~30 µg) were prepared in parallel as Western blot controls.
14. Cellular thermal shift assay.
Progeroid mouse fibroblasts (LmnaG609G/G609G) were seeded (2x10^6 cells) in 100 mm dishes 24 h before the experiment. Next day, cells were first washed with PBS and then incubated with the proteasome inhibitor (S)-MG132 (20 µM) for 2 h at 37 °C and 5%
CO2. Then, the cells were incubated with compound 2 at the corresponding concentration or with vehicle for 60 min at 37 °C and 5% CO2. Cells were then washed with PBS, detached by treatment with trypsin, and collected by centrifugation at 250g and 25 °C for 5 min, washed with PBS and resuspended in PBS in 0.2 mL microtubes. Then, homogenates or cells were transferred to PCR tubes and heat-shocked for 3 min at the appropriate temperature (37 to 61 °C) followed by rapid cooling to 25 °C using a SensoQuest LabCycler Thermocycler (Progen Scientific Ltd). Igepal CA-630 was then added to the samples (final concentration of 1 % v/v), and the samples were thoroughly mixed and denatured by three cycles of freezing/thawing (immersion in liquid nitrogen followed by fast thawing). […]

CC1(C)Oc2cc3oc(=O)ccc3cc2C[C@@H]1OC(=O)CCCCCNc1cccc2c1C(=O)N(C1CCC(=O)NC1=O)C2=O (stereo partly shown) [compound 2]
IC50 (CETSA, isothermal at 53 °C, Lmna^G609G/G609G fibroblasts, read-out: binding affinity by isothermal dose‐response fingerprint (IC50)): 7 ± 1 µM
direct binding to progerin by cellular thermal shift assays (Lmna^G609G/G609G fibroblasts): direct binding between compound 2 and progerin
ΔTm at 10 µM (compound at 10 µM, read-out: DTm of progerin (thermal denaturation curve)): 0.7 ± 0.1 °C
ΔTm at 25 µM (compound at 25 µM, read-out: DTm of progerin (thermal denaturation curve)): 2 ± 0.3 °C
